Measured values as given in ChEMBL document CHEMBL1201862, “PubChem BioAssay data set” (2004).
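Compound exposure: 48 hours, 5 concentrations, 96-well plates. Here, GI50 denotes the concentration required for 50% inhibition of growth.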 Calls of active or inactive are those of the source. Rule as the data show it: active = GI50 up to about 1.1 µM and inactive = higher.

Key:
Experiment in all cases: DTP human tumour cell line panel, 48 h
MOLT-4 = test system: MOLT-4
PC-3 = test system: PC-3
HCT-116 = test system: HCT-116
MCF7 = test system: MCF7
A498 = test system: A498
SN12C = test system: SN12C
EKVX = test system: EKVX
IGROV-1 = test system: IGROV-1
COLO 205 = test system: COLO 205
NCI-H226 = test system: NCI-H226
BT-549 = test system: BT-549
UO-31 = test system: UO-31
NCI-H23 = test system: NCI-H23
SNB-75 = test system: SNB-75
LOX IMVI = test system: LOX IMVI
KM12 = test system: KM12
SF-539 = test system: SF-539
K562 = test system: K562
HCC 2998 = test system: HCC 2998
RXF 393 = test system: RXF 393

| Compound | GI50 (MOLT-4) | GI50 (PC-3) | GI50 (HCT-116) | GI50 (MCF7) | GI50 (A498) | GI50 (SN12C) | GI50 (EKVX) | GI50 (IGROV-1) | GI50 (COLO 205) | GI50 (NCI-H226) | GI50 (BT-549) | GI50 (UO-31) | GI50 (NCI-H23) | GI50 (SNB-75) | GI50 (LOX IMVI) | GI50 (KM12) | GI50 (SF-539) | GI50 (K562) | GI50 (HCC 2998) | GI50 (RXF 393) |
| --- | --- | --- | --- | --- | --- | --- | --- | --- | --- | --- | --- | --- | --- | --- | --- | --- | --- | --- | --- | --- |
| N=C(N)N/N=C/c1c(-c2ccc(Cl)cc2)nc2sc(Cl)cn12 | 0.504 µM (active) | 3 µM (inactive) | 0.43 µM (active) | 1.53 µM (inactive) | 1.74 µM (inactive) | 1.77 µM (inactive) | 1.85 µM (inactive) | 0.755 µM (active) | 0.923 µM (active) | 1.94 µM (inactive) | 1.27 µM (inactive) | 1.68 µM (inactive) | 1.08 µM (active) | 1.41 µM (inactive) | 0.169 µM (active) | 1.03 µM (active) | 1.27 µM (inactive) |  |  |  |
| CC1(C)OCC(C2CCC3(C)C4=CCC5C(C)(C)C(O)CCC5(C)C4CCC23C)CC(O)C1O (stereo unspecified) | 14.4 µM (inactive) | 11.3 µM (inactive) | 13.2 µM (inactive) | 20.7 µM (inactive) | 24.7 µM (inactive) | 18.7 µM (inactive) | 14.6 µM (inactive) | 18.7 µM (inactive) | 22.5 µM (inactive) | 17.3 µM (inactive) | 15.9 µM (inactive) | 16.7 µM (inactive) | 17.8 µM (inactive) | 15.1 µM (inactive) | 17.1 µM (inactive) | 14.5 µM (inactive) | 18.8 µM (inactive) | 4.22 µM (inactive) | 15.5 µM (inactive) |  |
| C1=C\SS/C=C\SS/C=C\SS/C=C\SS/1 | 42.3 µM (inactive) | > 100 µM (inactive) | > 100 µM (inactive) | 46.7 µM (inactive) | > 100 µM (inactive) | > 100 µM (inactive) | > 100 µM (inactive) | > 100 µM (inactive) | > 100 µM (inactive) | > 100 µM (inactive) | > 100 µM (inactive) | > 100 µM (inactive) | > 100 µM (inactive) |  | 42.4 µM (inactive) | > 100 µM (inactive) |  | 27.9 µM (inactive) | > 100 µM (inactive) | 80.9 µM (inactive) |
| OCC(O)COCn1cc(Cn2ncc3c(SCc4ccccc4)ncnc32)nn1 (stereo unspecified) | > 100 µM (inactive) | > 100 µM (inactive) | > 100 µM (inactive) | > 100 µM (inactive) | > 100 µM (inactive) | > 100 µM (inactive) | > 100 µM (inactive) | > 100 µM (inactive) | > 100 µM (inactive) | > 100 µM (inactive) | > 100 µM (inactive) | > 100 µM (inactive) | > 100 µM (inactive) |  | > 100 µM (inactive) | > 100 µM (inactive) | > 100 µM (inactive) | > 100 µM (inactive) | > 100 µM (inactive) |  |
| c1ccc(C[n+]2cccc(-c3cc4ccccc4[nH]3)c2)cc1 | 21.5 µM (inactive) | 39.2 µM (inactive) | 32.5 µM (inactive) | 27.6 µM (inactive) | 39.5 µM (inactive) | 15.4 µM (inactive) | 42.8 µM (inactive) | 19.4 µM (inactive) | 15 µM (inactive) | 31.2 µM (inactive) | 13.4 µM (inactive) | > 100 µM (inactive) | 16.4 µM (inactive) | 29.4 µM (inactive) | 19.1 µM (inactive) | 16.6 µM (inactive) |  | 21.6 µM (inactive) |  | > 100 µM (inactive) |
| CC1CNC(NS(=O)(=O)c2cc(C(=O)Nc3ccc(Cl)cc3)c(Cl)cc2S)=NN1 (stereo unspecified) | 52.8 µM (inactive) | 30 µM (inactive) | 27 µM (inactive) | 45 µM (inactive) | 18.1 µM (inactive) | 38.8 µM (inactive) | 63 µM (inactive) | 36.1 µM (inactive) | 41.7 µM (inactive) | 27.5 µM (inactive) | 53.7 µM (inactive) | 49.7 µM (inactive) | 27.4 µM (inactive) |  | 27.4 µM (inactive) | 28.1 µM (inactive) | 30.8 µM (inactive) | 31.1 µM (inactive) | 19.1 µM (inactive) |  |
| O=C1NC(N2CCCC(CO)C2)=N/C1=C\c1ccc(Cl)cc1 (stereo unspecified) | > 100 µM (inactive) | > 100 µM (inactive) | > 100 µM (inactive) | > 100 µM (inactive) |  | > 100 µM (inactive) | 49.1 µM (inactive) | 37.1 µM (inactive) | > 100 µM (inactive) | > 100 µM (inactive) | > 100 µM (inactive) | 75 µM (inactive) | > 100 µM (inactive) | 51.1 µM (inactive) | 87.5 µM (inactive) | 63.7 µM (inactive) | > 100 µM (inactive) | > 100 µM (inactive) | 35.9 µM (inactive) | > 100 µM (inactive) |
| Cc1cc2nc3c(C#N)c4c(c(Nc5ccc(F)cc5)n3c2cc1C)CCC4 | > 100 µM (inactive) | > 100 µM (inactive) | > 100 µM (inactive) | > 100 µM (inactive) |  | > 100 µM (inactive) | > 100 µM (inactive) | > 100 µM (inactive) | > 100 µM (inactive) | > 100 µM (inactive) | > 100 µM (inactive) |  | > 100 µM (inactive) | > 100 µM (inactive) | > 100 µM (inactive) | > 100 µM (inactive) | > 100 µM (inactive) | > 100 µM (inactive) |  | > 100 µM (inactive) |
| [N-]=[N+]=CC(=O)OCC1SCCCS1 | > 100 µM (inactive) | > 100 µM (inactive) | > 100 µM (inactive) | > 100 µM (inactive) | > 100 µM (inactive) | > 100 µM (inactive) | > 100 µM (inactive) | > 100 µM (inactive) | > 100 µM (inactive) | > 100 µM (inactive) | > 100 µM (inactive) | > 100 µM (inactive) | > 100 µM (inactive) |  | > 100 µM (inactive) | > 100 µM (inactive) |  | > 100 µM (inactive) | > 100 µM (inactive) | > 100 µM (inactive) |
| O=C(NC(CO)Cc1ccc(Oc2cc(CC(CO)NC(=O)OCc3ccccc3)ccc2OC(=O)OCc2ccccc2)cc1)OCc1ccccc1 (stereo unspecified) | 3.32 µM (inactive) | 11.4 µM (inactive) | 16.7 µM (inactive) | 11.8 µM (inactive) | 14.7 µM (inactive) | 19.1 µM (inactive) | 14.5 µM (inactive) | 20.3 µM (inactive) | 18.2 µM (inactive) | 16.9 µM (inactive) | 11.7 µM (inactive) | 18.2 µM (inactive) | 16.1 µM (inactive) | 16.5 µM (inactive) | 12.1 µM (inactive) | 17.1 µM (inactive) | 20.1 µM (inactive) | 10.9 µM (inactive) | 16.1 µM (inactive) |  |
| Cc1ccc(C)c2c1CC(Cc1ccccc1C(=O)O)C2=O (stereo unspecified) | > 100 µM (inactive) | > 100 µM (inactive) | > 100 µM (inactive) | > 100 µM (inactive) |  | > 100 µM (inactive) | > 100 µM (inactive) | > 100 µM (inactive) | > 100 µM (inactive) | > 100 µM (inactive) | > 100 µM (inactive) | > 100 µM (inactive) | > 100 µM (inactive) | > 100 µM (inactive) | > 100 µM (inactive) | > 100 µM (inactive) | > 100 µM (inactive) | > 100 µM (inactive) | > 100 µM (inactive) | 83.2 µM (inactive) |
| O=C(O)c1cnc2[nH]ccn2c1=O | > 100 µM (inactive) | > 100 µM (inactive) | > 100 µM (inactive) | > 100 µM (inactive) | > 100 µM (inactive) | > 100 µM (inactive) | > 100 µM (inactive) | > 100 µM (inactive) | > 100 µM (inactive) | > 100 µM (inactive) | > 100 µM (inactive) | > 100 µM (inactive) | > 100 µM (inactive) | > 100 µM (inactive) |  |  |  | > 100 µM (inactive) | > 100 µM (inactive) |  |
| O=C1C[C@H](c2ccccc2)O[C@@H](c2ccccc2)C1 | 58.1 µM (inactive) | > 100 µM (inactive) | > 100 µM (inactive) | 74.3 µM (inactive) |  | > 100 µM (inactive) | > 100 µM (inactive) | > 100 µM (inactive) | > 100 µM (inactive) | > 100 µM (inactive) | > 100 µM (inactive) | > 100 µM (inactive) | > 100 µM (inactive) | > 100 µM (inactive) | > 100 µM (inactive) | > 100 µM (inactive) | > 100 µM (inactive) | 26.9 µM (inactive) | > 100 µM (inactive) | > 100 µM (inactive) |
| O=C(O)COc1cc(-c2ccccc2)nc2ccccc12 | 47.2 µM (inactive) | > 100 µM (inactive) | 36.8 µM (inactive) | 49 µM (inactive) | 65.3 µM (inactive) | > 100 µM (inactive) | > 100 µM (inactive) | 56.4 µM (inactive) | 51.1 µM (inactive) | > 100 µM (inactive) | > 100 µM (inactive) | 61.4 µM (inactive) | 77.6 µM (inactive) | 41.5 µM (inactive) | 99.8 µM (inactive) | 50.1 µM (inactive) | 70.8 µM (inactive) | 36.8 µM (inactive) | > 100 µM (inactive) |  |
| O=C1c2scc(-c3ccccc3)c2-n2cccc21 | 13.4 µM (inactive) | 11.7 µM (inactive) | 13.4 µM (inactive) | 17.3 µM (inactive) | 1.72 µM (inactive) | 29.8 µM (inactive) | 4.89 µM (inactive) | 2.59 µM (inactive) | 17.8 µM (inactive) | 10.2 µM (inactive) | 25.9 µM (inactive) | 22.5 µM (inactive) |  | 3.46 µM (inactive) | 14.4 µM (inactive) | 13.6 µM (inactive) |  |  | 20.4 µM (inactive) | 14 µM (inactive) |
